Reference: patent US20210060165A1, “Light-Controlled Antibacterial Agent Composed of Linear Cationic Oligopeptide and Multi-arm B-Cyclodextrin” (JILIN UNIVERSITY, priority 2019, published 2021)

Assays:
Experiment in all cases: growth curve (OD600) in LB liquid culture medium
Assay type in all cases: cell-based
Settings in all cases: separate or as aggregates
[1] = test system: Pseudomonas aeruginosa
Description: (§1) Preparation of LB liquid culture medium: dissolving 1-10 g of peptone, 0.5-5 g of yeast extract and 1-10 g of sodium chloride in 100-980 mL of redistilled water, and performing high temperature sterilization on same at 121° C. for 20 min to obtain a fresh LB liquid culture medium.
(§2) Picking bacterial strains (gram-negative bacteria such as Escherichia coli, […], Pseudomonas aeruginosa, and gram-positive bacteria such as Staphylococcus aureus) into 20-30 mL of (containing 20-25 μL of ampicillin) the above fresh LB liquid culture medium, placing in a constant temperature shaker with a revolution of 180 rpm and a temperature of 37° C. for culture for 11-15 h, thus obtaining the LB culture solution containing bacterial strains; then diluting the above LB culture solution containing bacteria strains with a blank LB liquid culture medium to an OD600 (OD600 refers to the light absorption value of the bacteria strain culture solution at 600 nm) about 0.035.
(§3) Antibacterial property of cross-linked aggregates in LB liquid culture medium: adding the diluted LB culture solution (the LB culture solution contains bacteria and ampicillin) containing bacterial strains into a clean test tube, adding the aqueous solution of the light-controlled antibacterial agent composed of the linear cationic oligopeptide and multi-arm β-cyclodextrin into the test tube, and controlling the concentration of the final linear cationic oligopeptide to 15-60 μM. Placing the prepared sample in the constant temperature shaker at 37° C. for culture, and controlling the revolution of the shaker to be 180 rpm. Determining the corresponding optical density (OD600) of the culture solution at different times (0-540 min) with a nucleic acid protein analyzer to evaluate the antibacterial activity of the cross-linked aggregates.
(§4) Preparation of LB liquid culture medium: dissolving 10 g of peptone, 5 g of yeast extract and 10 g of sodium chloride in 980 mL of redistilled water, and performing high temperature sterilization on same at 121° C. for 20 min to obtain a fresh LB liquid culture medium. Picking Escherichia coli (BL21-gold (DE3),) into 25 mL (containing 25 μL of ampicillin) of the above fresh LB liquid culture medium, placing in a constant temperature shaker with a revolution of 180 rpm and a temperature of 37° C. for culture for 12 h. Then diluting the obtained Escherichia coli culture solution with the fresh LB liquid culture medium to an OD600 of 0.035.
(§5) respectively taking 4 parts of the sterilized Escherichia coli culture solution (2.0 mL each) into 4 sterile test tubes, numbered as 1, 2, 3, and 4. […]

[2] = test system: Bacillus subtilis
Description: as §1, §2, §3, §4, §5

[3] = test system: Staphylococcus aureus
Description: as §1, §2, §3, §4, §5

[4] = test system: Escherichia coli (BL21-gold (DE3))
Description: as §1, §2, §3, §4, §5

[5] = Embodiment 4, 37° C., azoRARARVRazo-NH2 30 μM, three-arm β-cyclodextrin 20 μM
[6] = Embodiment 6, 37° C., azoKAKAKazo-NH2 60 μM, three-arm β-cyclodextrin 40 μM
[7] = Embodiment 2, 37° C., peptide 30 μM, cyclodextrin 30 μM
[8] = Embodiment 9, 37° C., azoKVKVKVKazo-NH2 30 μM, three-arm β-cyclodextrin 10 μM, two-arm β-cyclodextrin 15 μM
[9] = Embodiment 3, 37° C., azoKLKLKLKazo-NH2 30 μM, three-arm β-cyclodextrin 20 μM
[10] = Embodiment 7, 37° C., azoRARVRazo-NH2 50 μM, three-arm β-cyclodextrin 33.33 μM
[11] = Embodiment 5, 37° C., azoRIRIRARazo-NH2 20 μM, two-arm β-cyclodextrin 20 μM

Row | Compound | optical density (OD600) at end of culture [1, 5] | optical density (OD600) at start of culture [1, 5] | optical density (OD600) at end of culture [1, 6] | optical density (OD600) at start of culture [1, 6] | optical density (OD600) at end of culture [2, 7] | optical density (OD600) at start of culture [2, 7] | optical density (OD600) at end of culture [2, 8] | optical density (OD600) at start of culture [2, 8] | optical density (OD600) at end of culture [3, 9] | optical density (OD600) at start of culture [3, 9] | optical density (OD600) at end of culture [3, 10] | optical density (OD600) at start of culture [3, 10] | optical density (OD600) at start of incubation ([4]; Embodiment 1, 37° C., 0 min, azoKVKVKVKazo-NH2 30 μM, three-arm β-cyclodextrin 20 μM) | optical density (OD600) at end of incubation ([4]; Embodiment 1, 37° C., 9 h (540 min), azoKVKVKVKazo-NH2 30 μM, three-arm β-cyclodextrin 20 μM) | optical density (OD600) at end of culture [4, 11] | optical density (OD600) at start of culture [4, 11]
1 | OCC1OC2OC3C(CO)OC(OC4C(CO)OC(OC5C(Cn6cc(-c7cc(-c8cn(CC9OC%10OC%11C(CO)OC(OC%12C(CO)OC(OC%13C(CO)OC(OC%14C(CO)OC(OC%15C(CO)OC(OC%16C(CO)OC(OC9C(O)C%10O)C(O)C%16O)C(O)C%15O)C(O)C%14O)C(O)C%13O)C(O)C%12O)C(O)C%11O)nn8)cc(-c8cn(CC9OC%10OC%11C(CO)OC(OC%12C(CO)OC(OC%13C(CO)OC(OC%14C(CO)OC(OC%15C(CO)OC(OC%16C(CO)OC(OC9C(O)C%10O)C(O)C%16O)C(O)C%15O)C(O)C%14O)C(O)C%13O)C(O)C%12O)C(O)C%11O)nn8)c7)nn6)OC(OC6C(CO)OC(OC7C(CO)OC(OC8C(CO)OC(OC1C(O)C2O)C(O)C8O)C(O)C7O)C(O)C6O)C(O)C5O)C(O)C4O)C(O)C3O (stereo not drawn) [three-arm β-cyclodextrin] | 1.15 | 0.039 | 1.25 | 0.035 | 1.15 | 0.036 | 1.23 | 0.039 | 1.25 | 0.043 | 1.22 | 0.041 | 0.043 | 1.61 | – | –
2 | OCC1OC2OC3C(CO)OC(OC4C(CO)OC(OC5C(Cn6cc(COc7ccc(OCc8cn(CC9OC%10OC%11C(CO)OC(OC%12C(CO)OC(OC%13C(CO)OC(OC%14C(CO)OC(OC%15C(CO)OC(OC%16C(CO)OC(OC9C(O)C%10O)C(O)C%16O)C(O)C%15O)C(O)C%14O)C(O)C%13O)C(O)C%12O)C(O)C%11O)nn8)cc7)nn6)OC(OC6C(CO)OC(OC7C(CO)OC(OC8C(CO)OC(OC1C(O)C2O)C(O)C8O)C(O)C7O)C(O)C6O)C(O)C5O)C(O)C4O)C(O)C3O (stereo not drawn) [two-arm β-cyclodextrin] | – | – | – | – | – | – | – | – | – | – | – | – | – | – | 1.21 | 0.034
